{
  "source": "patent US20210220374A1",
  "about": "“METHODS OF TREATING TE[…]” (Clarus Therapeutics, Inc., priority 2013, published 2021)",
  "experiment": "Probability model of serum T Cavg and Cmax distributions (titration dosing modeling)",
  "design": "species or system hypogonadal men",
  "details": "nominal model parameter, 200 mg T BID as TU, normal distribution",
  "source_text": "The fractions of the modeled patient population having their serum T Cavg and Cmax values falling within and/or outside of pre-specified limits and categories, as predicted from the probability model, were monitored and tabulated. The categories of interest were those identified by the FDA in its proposed guidelines for safe and effective hormone replacement therapy, as summarized in Table 2.\nThe probability model was based on the pharmacokinetic results obtained from the hypogonadal patient population that participated in the two multi-dose TU treatments in study LOT-A. As noted previously, 29 hypogonadal males participated in the study, 28 of them completed Treatment Period 1 (300 mg T, as TU, BID) and 24 of them completed Treatment Period 3 (200 mg T, as TU, BID).\nInitially, the distribution of the calculated values of Cavg in the treated population was characterized by a mean and standard deviation assuming that the distribution fit either a normal distribution, or a log-normal distribution. […]\nSecond, a relationship was identified between serum T Cavg and Cmax using linear regression, such that given an hypothesized Cavg value, an expected value of Cmax could be determined (FIG. 5). […]\nFourth, the fraction of a treated population that fell within one of the 7 bins identified in Table 1 was calculated by: • 1. […]",
  "data": [
    {"smiles": "CCCCCCCCCCC(=O)O[C@H]1CC[C@H]2[C@@H]3CCC4=CC(=O)CC[C@]4(C)[C@H]3CC[C@]12C", "note": "[TU, testosterone undecanoate]", "values": [
      {"measurement": "Mean Cavg (CV)", "value": "520 (39%)"}
    ]}
  ]
}
